Like-named read-outs stand apart in the source and are kept apart here. *1 amine or outer side, *2 acyl side, *3 side chain or, on linkers, in order; H or OH if unused. Where a SMILES comes first, the peptide text is derived from it. [ ]: non-standard residue; d: D form. ξ: configuration not given here. ξTHIQ1CO(6-Me) = Cc1ccc2c(c1)CCNC2C(=O)O; X3 = O=C([C@@H]1Cc2ccccc2N1[*:1])[*:2]; Aad = N[C@@H](CCCC(=O)O)C(=O)O; Tle = CC(C)(C)[C@H](N)C(=O)O

One experiment addresses T1, human caspase-2 (Homo sapiens, UniProt P42575).
T1 construct: inferred from pET23b, XhoI reverse primer without stop codon, Ni-NTA purification) (C); made in house; host or cells: E. coli BL21(DE3)
T1 sequence (P42575 170-452): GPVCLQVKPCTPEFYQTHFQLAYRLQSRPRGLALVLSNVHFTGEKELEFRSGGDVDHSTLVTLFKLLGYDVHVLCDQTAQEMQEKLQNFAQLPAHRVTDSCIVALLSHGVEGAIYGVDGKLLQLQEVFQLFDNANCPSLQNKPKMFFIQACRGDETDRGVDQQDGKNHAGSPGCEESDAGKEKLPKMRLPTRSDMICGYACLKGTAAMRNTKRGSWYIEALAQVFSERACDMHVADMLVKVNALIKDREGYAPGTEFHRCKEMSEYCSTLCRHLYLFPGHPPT
The experiment in a line: Fluorescent enzyme assay, Casp2 (AFC substrate Z-VDVAD-AFC). Type of experiment: biochemical. The settings on record: for Ki (Casp3) / Ki (Casp2): selectivity Casp2 over Casp3. From the text:
(§1) Human recombinant Casp1, 6, 7, and 9 were purchased from BioVision (Milpitas/CA, USA). AFC fluorogenic substrates and control peptides (AcYVAD-CHO, AcVDVAD-CHO, AcDEVD-CHO, AcVEID-CHO, and AcLEHD-CHO) were purchased from Bachem (Torrance/CA, USA). The pET23b vector encoding human caspase-3 was a gift of Dr. Michelle Arkin at University of California, San Francisco. Expression and purification of Casp3 was guided by previously described protocols (Denault J-B, Salvesen G S., Current Protocols in Protein Science, 2002, 30(1), 21.13. 1-21.13. 15). Briefly, the plasmid was transformed into E. coli Rosetta 2 pLyss DE3 cells that were cultured at 1 L scale in shake flasks. Five hours post induction with IPTG, cells were harvested through centrifugation (4000 g for 10 minutes at 4° C.), lysed by sonication, and centrifuged again for 30 minutes at 20000 g. Supernatant was resuspended in buffer (100 mM Tris pH 8.0, 500 mM NaCl). Purification was achieved by nickel-affinity chromatography followed by ion-exchange chromatography. Protein was diluted to 0.5 mg/mL and stored at −80° C. in 100 mM Tris, pH 8.0 supplemented with 10% glycerol. The typical yield for the expression, isolation, and purification was approximately 3 mg/L. The DNA encoding human caspase-2 (hCASP2, amino acids 170-452, free of the N-terminal caspase activation and recruitment domain) open reading frame (ORF) was amplified via polymerase chain reaction (PCR) from full-length hCASP2 cDNA (Origene, Rockville, MD; Cat #SC321316) using following primers: forward, 5′-[…]-3′; reverse, 5′-[…]-3′. The PCR fragment was then cloned into the pET23b vector (Millipore Sigma, Burlington, MA), and DNA sequence was verified by classic Sanger sequencing analyses. Site-directed mutageneses were carried out using a QuikChange II XL site-directed mutagenesis kit (Agilent Technologies, Santa Clara, CA; Cat #200522) according to the manufacturer's instruction. Expression of recombinant hCASP2 was induced using 150 μM isopropyl-β-D-thiogalactopyranoside (IPTG) (Promega, Madison, WI) in the BL21(DE3) E. coli strain (Millipore Sigma) at 16° C. for 14 hours while shaking at 250 rpm. Cells were then harvested via centrifugation at 6,000 g, 4° C. for 15 minutes, followed by lysis via sonication. Proteins were initially purified using HisPur Ni-NTA resin (Thermo Fisher Scientific, Waltham, MA) followed by metal chelating chromatography (5 mL HiTrap Chelating HP columns (GE Healthcare Life Sciences, Piscataway, NJ)). Further purification was carried out using anion exchange chromatography (5 mL HiTrap Q HP columns (GE Healthcare Life Sciences)) for hCASP2. Proteins were stored in 1× phosphate-buffered saline (pH 7.4) at 10 mg/mL (concentration determined using a BCA assay (Thermo Fisher Scientific)), −80° C. until further use.
(§2) KM values were determined experimentally to be the following: Casp1: 5.9 μM; Casp2: 37.1 μM; Casp3: 7.6 μM; Casp6: 14.5 μM; Casp7: 13.8 μM; Casp9: 149.1 μM. Enzymes were diluted in buffer: 100 mM MES (pH 6.5) for Casp2 and or 100 mM HEPES (pH 7.0) for all other caspases, plus 150 mM NaCl, 0.1% CHAPS, 1.5% sucrose, 10 mM DTT. Enzyme concentrations were 0.05 U/well for Casp1, 6, and 7; 0.5 U/well for Casp9, 20 nM/well for Casp2, and 2 nM/well for Casp3. Enzyme in buffer (19 μL) was added per well in a black 384-well Corning 4514 assay plate. Test compounds were serially diluted in dimethyl sulfoxide (DMSO) and plated in duplicate into a Corning 3656 transfer plate. Test compound was added to assay plates in 0.5 μL aliquots per well and mixed 10 times using a BiomekFX (Beckman Coulter). Compound and enzyme mixture was incubated at 37° C. for 5 minutes for aldehyde warheads and 45 minutes for cyano warheads. […]

A further experiment concerns the target T2, human caspase-3 (Homo sapiens, UniProt P42574).
T2 construct: made in house; host or cells: E. coli Rosetta 2 pLysS DE3
T2 sequence (P42574 29-277): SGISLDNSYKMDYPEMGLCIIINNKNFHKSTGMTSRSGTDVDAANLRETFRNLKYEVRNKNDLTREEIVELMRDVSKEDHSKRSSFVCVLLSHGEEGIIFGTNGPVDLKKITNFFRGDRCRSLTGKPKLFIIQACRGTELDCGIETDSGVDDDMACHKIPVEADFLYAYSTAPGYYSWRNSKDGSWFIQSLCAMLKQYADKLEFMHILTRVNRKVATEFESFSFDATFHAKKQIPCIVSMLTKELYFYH
The experiment in a line: Fluorescent enzyme assay, Casp3 (AFC substrate AcDEVD-AFC). Type of experiment: biochemical.
Description: as §1, §2

Take `Cc1ccc2c(c1)CCN(C(=O)[C@@H](NC(=O)[C@H](CCCC(=O)O)NC(=O)[C@@H]1Cc3ccccc3N1)C(C)(C)C)C2C(=O)N[C@H](C=O)CC(=O)O` (stereo partly drawn) [Compound 11, (S)-6-(((S)-1-((S)-1-(((S)-1-carboxy-3-oxopropan-2-yl)carbamoyl)-6-methyl-3,4-dihydroisoquinolin-2(1H)-yl)-3,3-dimethyl-1-oxobutan-2-yl)amino)-5-((S)-indoline-2-carboxamido)-6-oxohexanoic acid hydrotrifluoroacetate] (H-[X3][Aad][Tle][ξTHIQ1CO(6-Me)]D-aldehyde): at human caspase-2, the Ki is 4.17 µM and the “Ki (Casp3) / Ki (Casp2)” value was found to be 24. In addition, at human caspase-3, the Ki was greater than 100 µM.
Taken in the same sequence, the figures for `Cc1ccc2c(c1F)CCN(C(=O)[C@@H](NC(=O)[C@H](CCCC(=O)O)NC(=O)[C@@H]1Cc3ccccc3N1)C(C)C)C2C(=O)N[C@H](C=O)CC(=O)O` (stereo partly drawn) [Compound 14, (S)-6-(((S)-1-((S)-1-(((S)-1-carboxy-3-oxopropan-2-yl)carbamoyl)-5-fluoro-6-methyl-3,4-dihydroisoquinolin-2(1H)-yl)-3-methyl-1-oxobutan-2-yl)amino)-5-((S)-indoline-2-carboxamido)-6-oxohexanoic acid hydrotrifluoroacetate] were 0.191 µM, 525 and greater than 100 µM.
Regarding `CC(=O)N1c2ccccc2C[C@H]1C(=O)N[C@@H](CCCC(=O)O)C(=O)N[C@H](C(=O)N1CCc2cc(C)ccc2[C@H]1C(=O)N[C@H](C=O)CC(=O)O)[C@H](C)OCc1ccccc1` [Compound 8, (S)-5-((S)-1-acetylindoline-2-carboxamido)-6-(((2S,3S)-3-(benzyloxy)-1-((S)-1-(((S)-1-carboxy-3-oxopropan-2-yl)carbamoyl)-6-methyl-3,4-dihydroisoquinolin-2(1H)-yl)-1-oxobutan-2-yl)amino)-6-oxohexanoic acid], the Ki on human caspase-2 (mean ± SEM of N independent experiments, each in duplicate or triplicate, read-out: pKi ± SEM Casp 2 (converted)) is 6.03 µM; on human caspase-3 (mean ± SEM of N independent experiments, each in duplicate or triplicate, read-out: pKi ± SEM Casp 3 (converted)) it was greater than 100 µM. In addition, the “Ki (Casp3) / Ki (Casp2)” value on human caspase-2 was determined as 17.
`Cc1ccc2c(c1)CCN(C(=O)CNC(=O)[C@H](CCCC(=O)O)NC(=O)[C@@H]1Cc3ccccc3N1)[C@@H]2C(=O)N[C@H](C=O)CC(=O)O` [Compound 5, (S)-6-((2-((S)-1-(((S)-1-carboxy-3-oxopropan-2-yl)carbamoyl)-6-methyl-3,4-dihydroisoquinolin-2(1H)-yl)-2-oxoethyl)amino)-5-((S)-indoline-2-carboxamido)-6-oxohexanoic acid hydrotrifluoroacetate]: the values for the Ki at human caspase-2 and on human caspase-3 were 0.017 µM and 5.5 µM, respectively. Moreover, the “Ki (Casp3) / Ki (Casp2)” value at human caspase-2 was 324.
